We go through 22 molecules from US11548870B2, “Compounds useful as inhibitors of helios protein” (Bristol-Myers Squibb Company, priority 2019, dated 2023).

For orientation: DC50 means the midpoint of the concentration-degradation curve. Higher therefore signals degradation only at high concentration. The term Dmax denotes the greatest extent of degradation seen.

The target in experiment [1] is T1, Helios (Homo sapiens, UniProt Q96SW2+Q9UKS7).
T1 construct: fluorescently labelled antibodies against Helios and Ikaros; endogenous in cells; host or cells: Jurkat cells
The experiment is described as follows: Helios Cellular Degradation Assay (flow cytometry, Helios-PE antibody staining, 72 h). The class given is cell-based. Conditions: for Dmax: Jurkat, read-out: Helios Dmax. The method, boiled down: (§1)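 Jurkat cells (80,000/well, RPMI+10% FBS) were exposed to compound for 72 h at 37 °C, then fixed, permeabilized and co-stained for 1 h with Ikaros-Alexa488 and Helios-PE antibodies. Intracellular protein levels were read by flow cytometry.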
(Flow cytometry measures light scatter and fluorescence of single cells or particles in a stream.)

In experiment [2] the target is T2, Ikaros (Homo sapiens, UniProt Q13422).
T2 construct: fluorescently labelled antibodies against Helios and Ikaros; endogenous in cells; host or cells: Jurkat cells
The experiment is described as follows: Helios Cellular Degradation Assay, Ikaros readout (flow cytometry, Ikaros-Alexa488 antibody staining, 72 h). It is filed as cell-based. As to conditions: for Dmax: Jurkat, read-out: Ikaros Dmax. The method, boiled down: as §1

The mark [3] stands for this setting: Jurkat cells, 72 h incubation, flow cytometry.

Read-outs that look alike come from different tables or passages of the source.

T2 sequence (Q96SW2 whole entry partner): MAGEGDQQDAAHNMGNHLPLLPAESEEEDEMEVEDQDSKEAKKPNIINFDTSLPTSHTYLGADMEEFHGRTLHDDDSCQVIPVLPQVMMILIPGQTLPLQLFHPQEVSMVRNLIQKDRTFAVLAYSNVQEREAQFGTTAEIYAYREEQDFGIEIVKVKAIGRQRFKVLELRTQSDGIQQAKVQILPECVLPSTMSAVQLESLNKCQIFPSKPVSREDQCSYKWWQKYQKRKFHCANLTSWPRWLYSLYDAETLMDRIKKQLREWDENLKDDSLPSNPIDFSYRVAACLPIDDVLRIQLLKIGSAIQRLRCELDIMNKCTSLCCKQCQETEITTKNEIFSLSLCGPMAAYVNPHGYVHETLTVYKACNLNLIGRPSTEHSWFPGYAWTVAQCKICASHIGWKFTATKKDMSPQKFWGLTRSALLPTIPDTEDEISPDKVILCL
T2 sequence (Q16531 whole entry partner): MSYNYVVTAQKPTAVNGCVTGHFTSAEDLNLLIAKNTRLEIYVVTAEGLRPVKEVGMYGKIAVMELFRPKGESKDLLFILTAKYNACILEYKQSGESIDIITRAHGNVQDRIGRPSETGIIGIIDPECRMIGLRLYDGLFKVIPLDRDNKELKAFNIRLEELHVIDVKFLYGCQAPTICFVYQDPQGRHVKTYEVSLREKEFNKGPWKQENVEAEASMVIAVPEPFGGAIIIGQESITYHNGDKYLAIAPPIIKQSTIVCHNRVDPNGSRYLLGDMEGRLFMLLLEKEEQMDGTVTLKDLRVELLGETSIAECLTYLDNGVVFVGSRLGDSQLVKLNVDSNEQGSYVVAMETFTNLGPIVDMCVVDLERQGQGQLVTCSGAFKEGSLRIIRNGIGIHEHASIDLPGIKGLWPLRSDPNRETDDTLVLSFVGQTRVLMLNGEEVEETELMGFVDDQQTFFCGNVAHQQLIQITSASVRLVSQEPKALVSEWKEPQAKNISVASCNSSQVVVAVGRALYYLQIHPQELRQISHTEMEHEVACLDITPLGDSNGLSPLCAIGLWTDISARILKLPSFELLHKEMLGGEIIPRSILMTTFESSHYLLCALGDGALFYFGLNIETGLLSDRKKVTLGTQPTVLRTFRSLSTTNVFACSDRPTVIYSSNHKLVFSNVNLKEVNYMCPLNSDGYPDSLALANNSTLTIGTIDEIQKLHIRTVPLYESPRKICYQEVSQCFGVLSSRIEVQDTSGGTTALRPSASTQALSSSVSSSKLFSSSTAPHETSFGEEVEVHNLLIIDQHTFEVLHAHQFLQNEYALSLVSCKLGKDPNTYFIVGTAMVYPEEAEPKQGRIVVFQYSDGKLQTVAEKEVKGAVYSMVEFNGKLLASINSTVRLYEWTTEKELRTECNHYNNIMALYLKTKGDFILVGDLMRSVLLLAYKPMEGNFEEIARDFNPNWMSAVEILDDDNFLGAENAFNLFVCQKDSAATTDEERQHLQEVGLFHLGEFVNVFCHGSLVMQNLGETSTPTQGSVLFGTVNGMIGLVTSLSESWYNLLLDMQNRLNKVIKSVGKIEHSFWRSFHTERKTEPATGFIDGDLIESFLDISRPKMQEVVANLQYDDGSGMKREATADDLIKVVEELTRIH
T2 sequence (Q13422 whole entry): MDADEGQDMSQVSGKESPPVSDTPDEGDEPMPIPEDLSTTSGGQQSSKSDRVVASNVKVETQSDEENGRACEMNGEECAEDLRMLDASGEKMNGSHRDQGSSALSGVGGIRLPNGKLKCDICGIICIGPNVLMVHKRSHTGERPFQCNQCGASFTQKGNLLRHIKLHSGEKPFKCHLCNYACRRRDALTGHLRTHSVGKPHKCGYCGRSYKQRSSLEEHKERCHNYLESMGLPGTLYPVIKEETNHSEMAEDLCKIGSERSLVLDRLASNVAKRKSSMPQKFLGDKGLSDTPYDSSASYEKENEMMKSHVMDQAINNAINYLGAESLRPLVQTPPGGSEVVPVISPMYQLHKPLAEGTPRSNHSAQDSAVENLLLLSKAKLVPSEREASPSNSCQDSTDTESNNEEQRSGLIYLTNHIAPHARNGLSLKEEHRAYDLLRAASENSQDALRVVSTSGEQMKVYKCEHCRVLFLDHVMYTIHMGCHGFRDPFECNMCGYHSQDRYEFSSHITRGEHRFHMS
T1 sequence (Q9UKS7 whole entry): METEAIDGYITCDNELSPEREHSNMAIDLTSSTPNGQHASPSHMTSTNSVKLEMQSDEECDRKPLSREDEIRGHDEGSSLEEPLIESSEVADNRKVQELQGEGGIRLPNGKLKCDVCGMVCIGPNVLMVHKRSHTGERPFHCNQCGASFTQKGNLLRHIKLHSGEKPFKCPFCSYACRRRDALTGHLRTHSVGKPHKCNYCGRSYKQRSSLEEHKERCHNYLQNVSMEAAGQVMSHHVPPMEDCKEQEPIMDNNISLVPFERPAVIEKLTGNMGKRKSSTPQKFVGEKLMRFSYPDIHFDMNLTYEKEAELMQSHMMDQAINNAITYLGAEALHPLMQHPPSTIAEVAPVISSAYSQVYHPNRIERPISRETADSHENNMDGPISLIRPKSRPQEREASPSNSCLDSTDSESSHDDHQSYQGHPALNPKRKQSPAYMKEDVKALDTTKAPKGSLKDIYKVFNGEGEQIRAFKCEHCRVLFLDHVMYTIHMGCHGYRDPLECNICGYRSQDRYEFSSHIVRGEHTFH
T1 sequence (Q96SW2 whole entry): as the sequence (Q96SW2 whole entry partner) above
T1 sequence (Q16531 whole entry partner): as the sequence (Q16531 whole entry partner) above

In the case of `O=C1CCC(N2Cc3cc(-c4cc(CN5CCC(c6ccccc6)CC5)ccn4)ccc3C2=O)C(=O)N1` (stereo not shown) [Example 141, 3-(1-oxo-5-(4-((4-phenylpiperidin-1-yl)methyl)pyridin-2-yl)isoindolin-2-yl)piperidine-2,6-dione], in experiment [1] (setting [3]), the DC50 is 46 nM and the Dmax turned out to be 82%. For the same molecule, in experiment [2] (setting [3]), the DC50 was above 10000 nM and the Dmax turned out to be 20%.
In the same order, the values of `CN(Cc1ccnc(-c2ccc3c(c2)CN(C2CCC(=O)NC2=O)C3=O)c1)C(C)(C)c1ccccc1` (stereo not shown) [Example 142, 3-(5-(4-((methyl(2-phenylpropan-2-yl)amino)methyl)pyridin-2-yl)-1-oxoisoindolin-2-yl)piperidine-2,6-dione] are 88 nM, 83%, 897 nM and 52%.
Turning to `O=C1CCC(N2Cc3cc(-c4cc(CN5CCCC(c6ccccc6)C5)ccn4)ccc3C2=O)C(=O)N1` (stereo not shown) [Example 143, 3-(1-oxo-5-(4-((3-phenylpiperidin-1-yl)methyl)pyridin-2-yl)isoindolin-2-yl)piperidine-2,6-dione], in experiment [1] (setting [3]), the DC50 was found to be 40 nM and the Dmax stood at 62%. In experiment [2] (setting [3]), the DC50 was above 10000 nM and the Dmax amounted to 1%.
Regarding `NCc1ccnc(-c2ccc3c(c2)CN(C2CCC(=O)NC2=O)C3=O)c1` (stereo not shown) [Example 144, 3-{5-[4-(Aminomethyl)pyridin-2-yl]-1-oxo-2,3-dihydro-1H-isoindol-2-yl}piperidine-2,6-dione], in experiment [1] (setting [3]), the DC50 was found to be 2020 nM and the Dmax was determined as 57%. Besides, in experiment [2] (setting [3]), the DC50 is above 10000 nM and the greatest degradation seen (Dmax) is 11%.
Take `CNCc1ccnc(-c2ccc3c(c2)CN(C2CCC(=O)NC2=O)C3=O)c1` (stereo not shown) [Example 145, 3-(5-{4-[(Methylamino)methyl]pyridin-2-yl}-1-oxo-2,3-dihydro-1H-isoindol-2-yl) piperidine-2,6-dione]: in experiment [1] (setting [3]), the DC50 was 67 nM and the Dmax came out at 93%. Moreover, in experiment [2] (setting [3]), the DC50 was above 10000 nM and the Dmax is 11%.
With `CN(Cc1ccc(S(=O)(=O)N(C)C)cc1)Cc1ccnc(-c2ccc3c(c2)CN(C2CCC(=O)NC2=O)C3=O)c1` (stereo not shown) [Example 146, 4-{[({2-[2-(2,6-Dioxopiperidin-3-yl)-1-oxo-2,3-dihydro-1H-isoindol-5-yl]pyridin-4-yl}methyl)(methyl)amino]methyl}-N,N-dimethylbenzene-1-sulfonamide], in experiment [1] (setting [3]), the DC50 was above 10000 nM and the Dmax is 3%. In experiment [2] (setting [3]), the DC50 is above 10000 nM and the Dmax amounted to 5%.
On to `CN(Cc1ccc(F)cc1)Cc1ccnc(-c2ccc3c(c2)CN(C2CCC(=O)NC2=O)C3=O)c1` (stereo not shown) [Example 147, 3-(5-(4-(((4-fluorobenzyl)(methyl)amino)methyl)pyridin-2-yl)-1-oxoisoindolin-2-yl)piperidine-2,6-dione], for which the results for the DC50 in experiment [1] (setting [3]) and in experiment [2] (setting [3]) were 226 nM and above 10000 nM, respectively. Also, the Dmax in experiment [1] (setting [3]) came to 74%; in experiment [2] (setting [3]) it was 4%.
Regarding `CN(Cc1cccc(C(F)(F)F)c1)Cc1ccnc(-c2ccc3c(c2)CN(C2CCC(=O)NC2=O)C3=O)c1` (stereo not shown) [Example 148, 3-(5-(4-((methyl(3-(trifluoromethyl)benzyl)amino)methyl)pyridin-2-yl)-1-oxoisoindolin-2-yl)piperidine-2,6-dione], the DC50 in experiment [1] (setting [3]) was 238 nM; in experiment [2] (setting [3]) it was above 10000 nM. The Dmax in experiment [1] was determined as 75%; in experiment [2], 9%.
For the molecule `CN(Cc1ccc(C(F)(F)F)cc1)Cc1ccnc(-c2ccc3c(c2)CN(C2CCC(=O)NC2=O)C3=O)c1` (stereo not shown) [Example 149, 3-(5-(4-((methyl(4-(trifluoromethyl)benzyl)amino)methyl)pyridin-2-yl)-1-oxoisoindolin-2-yl)piperidine-2,6-dione], in experiment [1] (setting [3]), the DC50 was above 10000 nM and the Dmax was found to be 17%. For the same molecule, in experiment [2] (setting [3]), the DC50 was above 10000 nM and the Dmax stood at 6%.
As to `CN(Cc1ccc(C#N)cc1)Cc1ccnc(-c2ccc3c(c2)CN(C2CCC(=O)NC2=O)C3=O)c1` (stereo not shown) [Example 150, 4-((((2-(2-(2,6-dioxopiperidin-3-yl)-1-oxoisoindolin-5-yl)pyridin-4-yl)methyl)(methyl)amino)methyl)benzonitrile], in experiment [1] (setting [3]), the DC50 was above 10000 nM and the Dmax stood at 45%. In experiment [2] (setting [3]), the DC50 was above 10000 nM and the Dmax turned out to be 17%.
In the case of `CN(Cc1ccc([N+](=O)[O-])cc1)Cc1ccnc(-c2ccc3c(c2)CN(C2CCC(=O)NC2=O)C3=O)c1` (stereo not shown) [Example 151, 3-(5-(4-((methyl(4-nitrobenzyl)amino)methyl)pyridin-2-yl)-1-oxoisoindolin-2-yl)piperidine-2,6-dione], in experiment [1] (setting [3]), the DC50 is above 10000 nM and the Dmax was determined as 23%. Also, in experiment [2] (setting [3]), the DC50 is above 10000 nM and the Dmax is 1%.
Consider `CN(Cc1ccnc(-c2ccc3c(c2)CN(C2CCC(=O)NC2=O)C3=O)c1)Cc1ccc(F)c(F)c1` (stereo not shown) [Example 152, 3-(5-(4-(((3,4-difluorobenzyl)(methyl)amino)methyl)pyridin-2-yl)-1-oxoisoindolin-2-yl)piperidine-2,6-dione], for which the DC50 in experiment [1] (setting [3]) was 850 nM; in experiment [2] (setting [3]), above 10000 nM. The Dmax in experiment [1] (setting [3]) came out at 55%; in experiment [2] (setting [3]), 7%.
In the same order, the values of `COC(=O)c1ccc(CN(C)Cc2ccnc(-c3ccc4c(c3)CN(C3CCC(=O)NC3=O)C4=O)c2)cc1` (stereo not shown) [Example 153, methyl 4-((((2-(2-(2,6-dioxopiperidin-3-yl)-1-oxoisoindolin-5-yl)pyridin-4-yl)methyl)(methyl)amino)methyl)benzoate] are 4710 nM, above 10000 nM, 58% and 7%.
The corresponding values for `CN(Cc1ccc(Cl)cc1)Cc1ccnc(-c2ccc3c(c2)CN(C2CCC(=O)NC2=O)C3=O)c1` (stereo not shown) [Example 154, 3-(5-(4-(((4-chlorobenzyl)(methyl)amino)methyl)pyridin-2-yl)-1-oxoisoindolin-2-yl)piperidine-2,6-dione] are 3260 nM, above 10000 nM, 54% and 6%.
For `CN(Cc1ccnc(-c2ccc3c(c2)CN(C2CCC(=O)NC2=O)C3=O)c1)Cc1cccc2cccnc12` (stereo not shown) [Example 155, 3-(5-(4-((methyl(quinolin-8-ylmethyl)amino)methyl)pyridin-2-yl)-1-oxoisoindolin-2-yl)piperidine-2,6-dione], the DC50 in experiment [1] (setting [3]) was 1580 nM; in experiment [2] (setting [3]) it was above 10000 nM. Besides, the Dmax came out at 57% in experiment [1] (setting [3]) and 0% in experiment [2] (setting [3]).
In the case of `CN(Cc1cccc(OC(F)(F)F)c1)Cc1ccnc(-c2ccc3c(c2)CN(C2CCC(=O)NC2=O)C3=O)c1` (stereo not shown) [Example 156, 3-(5-(4-((methyl(3-(trifluoromethoxy)benzyl)amino)methyl)pyridin-2-yl)-1-oxoisoindolin-2-yl)piperidine-2,6-dione], in experiment [1] (setting [3]), the DC50 was 1830 nM and the Dmax is 56%. Also, in experiment [2] (setting [3]), the DC50 is above 10000 nM and the Dmax was 11%.
As for `CN(Cc1ccc(S(C)(=O)=O)cc1)Cc1ccnc(-c2ccc3c(c2)CN(C2CCC(=O)NC2=O)C3=O)c1` (stereo not shown) [Example 157, 3-(5-(4-((methyl(4-(methylsulfonyl)benzyl)amino)methyl)pyridin-2-yl)-1-oxoisoindolin-2-yl)piperidine-2,6-dione], the DC50 in experiment [1] (setting [3]) and in experiment [2] (setting [3]) was above 10000 nM throughout. In addition, the Dmax in experiment [1] (setting [3]) was 38%; in experiment [2] (setting [3]), 8%.
Consider `COc1cccc(CN(C)Cc2ccnc(-c3ccc4c(c3)CN(C3CCC(=O)NC3=O)C4=O)c2)c1` (stereo not shown) [Example 158, 3-(5-(4-(((3-methoxybenzyl)(methyl)amino)methyl)pyridin-2-yl)-1-oxoisoindolin-2-yl)piperidine-2,6-dione], for which, in experiment [1] (setting [3]), it took 256 nM to reach half-maximal degradation (DC50) and the Dmax is 74%. Besides, in experiment [2] (setting [3]), the DC50 is above 10000 nM and the Dmax is 3%.
The corresponding values for `CN(Cc1cccnc1)Cc1ccnc(-c2ccc3c(c2)CN(C2CCC(=O)NC2=O)C3=O)c1` (stereo not shown) [Example 159, 3-(5-(4-((methyl(pyridin-3-ylmethyl)amino)methyl)pyridin-2-yl)-1-oxoisoindolin-2-yl)piperidine-2,6-dione] are 136 nM, 76%, above 10000 nM and 25%.
Take `CN(Cc1ccncc1)Cc1ccnc(-c2ccc3c(c2)CN(C2CCC(=O)NC2=O)C3=O)c1` (stereo not shown) [Example 160, 3-(5-(4-((methyl(pyridin-4-ylmethyl)amino)methyl)pyridin-2-yl)-1-oxoisoindolin-2-yl) piperidine-2,6-dione]: in experiment [1] (setting [3]), the DC50 stood at 359 nM and the Dmax came to 70%. In experiment [2] (setting [3]), the DC50 is above 10000 nM and the Dmax was 30%.
For `Cc1ccc(CN(C)Cc2ccnc(-c3ccc4c(c3)CN(C3CCC(=O)NC3=O)C4=O)c2)cc1` (stereo not shown) [Example 161, 3-(5-(4-((methyl(4-methylbenzyl)amino)methyl)pyridin-2-yl)-1-oxoisoindolin-2-yl)piperidine-2,6-dione], in experiment [1] (setting [3]), the DC50 came out at 67 nM and the Dmax was 83%. In experiment [2] (setting [3]), the DC50 is above 10000 nM and the Dmax turned out to be 17%.
The corresponding values for `CN(Cc1ccnc(-c2ccc3c(c2)CN(C2CCC(=O)NC2=O)C3=O)c1)Cc1ccc2ccccc2c1` (stereo not shown) [Example 162, 3-(5-(4-((methyl(naphthalen-2-ylmethyl)amino)methyl)pyridin-2-yl)-1-oxoisoindolin-2-yl)piperidine-2,6-dione] are 1090 nM, 63%, above 10000 nM and 2%.
